Measured values taken from patent US20250082602A1, “OPHTHALMIC COMPOSITION CONTAINING RECOFLAVONE FOR THE TREATMENT OF DRY EYE DISEASE” (GL PHARMTECH CORP., priority 2021, published 2025).
Where two headings read alike, the source gives them in different places.

Experiments:
Solubility in water = format: physicochemical; settings: low solubility at low pH, increases with pH
[1] = test system: human keratoconjunctival epithelial cells; settings: cited from earlier work
[2] = Cell permeability of dissolved recoflavone; format: in vitro ADME; settings: dissolved state, high degree of ionization
rabbit eyes = experiment: Drug distribution in eye tissues after eye drop administration to rabbit eyes; format: in vivo; settings: 3% eye drop administered to rabbit eyes (data not shown)
From the text: It has a property with low solubility at low pH. As the pH increases, it is ionized and its solubility increases.

[3] = cited from earlier work

- Solubility in water (Solubility in water): practically insoluble in water
- Cell permeability [2]: poor cell permeability
SMILES: COc1ccc(-c2cc(=O)c3c(OC)cc(OCC(=O)O)cc3o2)cc1OC [recoflavone, 2-((2-(3,4-dimethoxyphenyl)-5-methoxy-4-oxo-4H-chromen-7-yl)oxy) acetic acid]
- Thickness of the mucin layer ([1]; 100 μM solution of the active ingredient): significantly increased
- Mucin proteins by Western blot analysis ([1]; Western blot): MUC5AC only had a tendency to increase
- Mucin expression MUC1, MUC4, MUC16 and MUC5AC by real-time PCR ([1]; real-time PCR): tendency to increase significantly for four hours and then decreased rapidly
- Drug distribution in each tissue of eye with time (rabbit eyes): rarely distributed in the tissues located inside the eye and mainly distributed in the surrounding tissues outside of the eye
- Hygroscopicity ([3]; form of a hydrate): stable without hygroscopicity
- Hygroscopicity ([3]; form of an anhydride): has hygroscopicity
